Measurements taken from PMC7114283 (Antiviral Research, 2010).
Like-named read-outs stand apart in the source and are kept apart here. Marks after values point to notes of the source that are not given here.

What was measured:
[1] = test system: ST cells
[2] = test system: TGEV
[3] = target: SARS CoV 3CLpro (Severe acute respiratory syndrome coronavirus, UniProt P0C6X7); format: biochemical
[4] = test system: SARS CoV Urbani strain
[5] = test system: TGEV; test: microbe, parasite or virus in culture; settings: Alphacoronavirus 1
[6] = target: TGEV 3CLpro (Porcine transmissible gastroenteritis coronavirus, UniProt P0C6Y5); format: biochemical, transmissible gastroenteritis virus
Sequence of TGEV 3CLpro (P0C6Y5 2879-3180 limits assumed): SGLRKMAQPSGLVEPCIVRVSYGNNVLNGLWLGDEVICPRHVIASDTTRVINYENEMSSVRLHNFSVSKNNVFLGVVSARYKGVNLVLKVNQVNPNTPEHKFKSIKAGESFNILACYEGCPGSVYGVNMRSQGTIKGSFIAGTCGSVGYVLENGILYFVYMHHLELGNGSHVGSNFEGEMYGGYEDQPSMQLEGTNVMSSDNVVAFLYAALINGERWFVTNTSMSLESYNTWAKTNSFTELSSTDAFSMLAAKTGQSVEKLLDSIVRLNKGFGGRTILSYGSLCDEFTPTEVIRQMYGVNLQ

[7] = in vivo; settings: male, Sprague-Dawley, rat, 3 mg/kg
[8] = male, Sprague-Dawley, rat, in vivo, 3 mg/kg
[9] = in vitro; settings: swine
[10] = test system: Vero 76 cells
[11] = test system: Vero 76 cells; remark: listed apart in the source
[12] = test system: SARS CoV Urbani strain; format: cell-based, human severe acute respiratory syndrome coronavirus

COc1cc2c3c(c4cc(OC)c(OC)cc4c2cc1OC)CN1CCC[C@@H]1C3 [1a′, tylophorine]
CC50 ([1]; swine): > 100000 nM
EC50 [2]: 95 ± 17 nM
SI (CC50/EC50) [2]: >1053

COc1cc2c3c(c4cc(OC)c(OC)cc4c2cc1OC)CN1CCC[C@@H]1C3 [Compound 1a, Tylophorine]
Inhibition of SARS CoV 3CLpro enzymatic activity [3]: did not significantly inhibit
Visual assay SI (CC50/EC50) [4]: 88
EC50 [5]: 58 ± 4 nM
Inhibition of TGEV 3CLpro enzymatic activity [6]: did not significantly inhibit
bioavailability [7]: 65.7%
AUC(0-inf) ([7]; iv): 772 ng·h/mL
clearance ([7]; iv): 66.8 mL/min/kg
AUC(0-inf) ([7]; po): 507 ng·h/mL
Cmax ([7]; po): 31.9 ng/mL
Tmax ([7]; po): 1.8 h
SI (CC50/EC50) [2]: >1715
Ctrough ([8]; iv): 1.1 ng/mL
t1/2 (apparent elimination half-life) ([8]; iv): 3.9 ^b h
Ctrough ([8]; po): 3.0 ng/mL
CC50 [9]: > 100000 nM

COc1ccc2c3c(c4cc(OC)c(OC)cc4c2c1)CN1CCC[C@H]1[C@@H]3O [Compound 1e, tylophorinine]
EC50 [5]: 82 ± 8 nM
SI (CC50/EC50) [2]: >1220
CC50 [9]: > 100000 nM

3,14a-dihydroxy-6,7-dimethoxyphenanthroindolizidine [Compound 1h]
CC50 [1]: 31600 nM
EC50 [2]: 18 ± 1 nM
SI (CC50/EC50) [2]: 1719

interferon alfacon-1 [Infergen™]
Neutral red uptake assay CC50 [10]: >130 µg/mL
Visual assay EC50 [4]: <0.32 µg/mL
Visual assay SI (CC50/EC50) [4]: >320
Visual assay CC50 [11]: >100 µg/mL
Neutral red uptake assay EC50 [12]: 2.4 µg/mL
